# Data: ChEMBL document CHEMBL4371054, “Dual inhibition of Kif15 by oxindole and quinazolinedione chemical probes” (Bioorg Med Chem Lett, 2019)
# Biological target: T1, Kinesin-like protein KIF15 (Homo sapiens) (UniProt Q9NS87)
# T1 sequence (whole entry): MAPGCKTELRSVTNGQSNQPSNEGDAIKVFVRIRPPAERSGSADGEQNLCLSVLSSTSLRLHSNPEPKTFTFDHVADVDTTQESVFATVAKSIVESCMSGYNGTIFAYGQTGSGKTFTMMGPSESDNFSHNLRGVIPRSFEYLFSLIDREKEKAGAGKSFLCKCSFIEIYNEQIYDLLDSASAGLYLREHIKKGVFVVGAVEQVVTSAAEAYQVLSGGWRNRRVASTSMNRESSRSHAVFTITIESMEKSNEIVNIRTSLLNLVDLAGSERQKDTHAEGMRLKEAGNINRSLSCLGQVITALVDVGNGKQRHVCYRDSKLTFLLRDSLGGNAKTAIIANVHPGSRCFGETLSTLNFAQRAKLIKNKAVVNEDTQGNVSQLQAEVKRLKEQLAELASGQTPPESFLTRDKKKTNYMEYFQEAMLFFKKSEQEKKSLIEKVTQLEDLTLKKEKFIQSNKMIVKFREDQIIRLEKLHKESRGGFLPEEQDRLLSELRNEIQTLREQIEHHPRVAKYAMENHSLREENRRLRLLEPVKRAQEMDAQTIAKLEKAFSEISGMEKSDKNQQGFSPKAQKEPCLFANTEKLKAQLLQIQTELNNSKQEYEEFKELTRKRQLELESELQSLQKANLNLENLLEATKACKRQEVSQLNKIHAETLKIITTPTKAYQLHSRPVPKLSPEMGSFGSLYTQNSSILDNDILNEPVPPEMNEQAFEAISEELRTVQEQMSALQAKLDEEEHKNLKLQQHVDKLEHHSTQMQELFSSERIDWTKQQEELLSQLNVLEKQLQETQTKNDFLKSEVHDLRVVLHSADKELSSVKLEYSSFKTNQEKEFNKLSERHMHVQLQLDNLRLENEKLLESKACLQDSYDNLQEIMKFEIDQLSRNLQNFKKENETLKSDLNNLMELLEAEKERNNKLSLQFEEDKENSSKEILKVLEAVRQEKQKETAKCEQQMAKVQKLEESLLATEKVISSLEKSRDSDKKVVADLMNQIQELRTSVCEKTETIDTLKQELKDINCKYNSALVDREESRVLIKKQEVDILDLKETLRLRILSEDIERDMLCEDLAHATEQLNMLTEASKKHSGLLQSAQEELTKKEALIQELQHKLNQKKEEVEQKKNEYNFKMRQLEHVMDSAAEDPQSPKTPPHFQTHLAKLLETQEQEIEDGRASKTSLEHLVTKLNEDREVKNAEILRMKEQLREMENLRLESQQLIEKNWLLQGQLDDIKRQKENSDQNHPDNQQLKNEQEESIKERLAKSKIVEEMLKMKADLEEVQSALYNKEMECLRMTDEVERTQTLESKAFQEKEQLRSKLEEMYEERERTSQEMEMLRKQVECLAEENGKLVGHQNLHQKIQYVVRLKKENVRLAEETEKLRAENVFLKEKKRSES
# Test: Inhibition of Kif15 in TP53-deficient human RPE1 cells assessed as reduction in spindle-bound Kif15 level at 25 uM after 24 hrs by Hoechst 33342 staining based immunofluorescence microscopic analysis relative to control
compound,measurement,value
O=C1Nc2ccc(C(=O)c3ccco3)cc2/C1=C/c1cc(Cl)c(O)c(Cl)c1,fold change (FC),3
